Some test systems named below: CAKI-1 renal; HCT-116 colon; HL-60(TB) leukemia; HS 578T breast; HT29 colon; K-562 leukemia; LOX IMVI melanoma; MCF7 breast; SF-268 CNS; SF-295 CNS; SK-MEL-2 melanoma; SK-MEL-28 melanoma; SW-620 colon; TK-10 renal; U251 CNS; SK-MEL-5 melanoma.
What all share (assay): NCI-60 cell line screen, 48 h

The structures appear in SMILES notation.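 Cells were grown in 96-well plates and exposed to each compound for 48 hours at five concentrations; endpoints were interpolated linearly between bracketing concentrations, or set to the highest concentration if not reached. Definition used: TGI = concentration required for complete inhibition of growth.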

`O=C1/C(=C/c2cccc([N+](=O)[O-])c2)CCCc2ccccc21`: the TGI with CAKI-1 renal was 30.1 µM; with HCT-116 colon, 17.2 µM; in the assay with HL-60(TB) leukemia, 21.6 µM; with HS 578T breast, 25.9 µM; in the assay with HT29 colon, 24 µM; with K-562 leukemia, 14.6 µM. Besides, the TGI in the assay on LOX IMVI melanoma came to 16.5 µM; with MCF7 breast it was 15.3 µM; in the assay on SF-268 CNS, 19.3 µM; in the assay with SF-295 CNS, 27.7 µM; in the assay with SK-MEL-2 melanoma it was 23 µM; with SK-MEL-28 melanoma, 28.6 µM. Moreover, the figures for the TGI in the assay on SW-620 colon, in the assay on TK-10 renal and in the assay with U251 CNS were 17 µM, 30.8 µM and 20.9 µM, respectively.

In the case of `COc1c(O)cc(/C=C/c2cc(O)cc3c2[C@@]2(C(=O)O3)c3c(O)cc(O)cc3OC2c2cccc(O)c2)cc1O` (some centres undefined), the TGI is more than 100 µM in the assay with CAKI-1 renal; more than 100 µM in the assay on HCT-116 colon; 69.1 µM in the assay with HL-60(TB) leukemia; more than 100 µM in the assay on HS 578T breast; 81.8 µM with HT29 colon; 91.9 µM in the assay with K-562 leukemia. In addition, the TGI in the assay on LOX IMVI melanoma was more than 100 µM; with MCF7 breast, more than 100 µM; in the assay on SF-268 CNS, more than 100 µM; with SK-MEL-2 melanoma it was more than 100 µM; with SK-MEL-28 melanoma, more than 100 µM; with SK-MEL-5 melanoma, 72.1 µM. In addition, the TGI in the assay on SW-620 colon, with TK-10 renal and in the assay with U251 CNS was more than 100 µM throughout.

Take `CCOC(=O)CNC(=O)C(CSC(=O)N(O)c1ccc(Br)cc1)NC(=O)CCC(N)C(=O)OCC` (centres undefined): the TGI in the assay with CAKI-1 renal was more than 50 µM; with HCT-116 colon, more than 50 µM; in the assay with HL-60(TB) leukemia, 0.00622 µM; in the assay with HS 578T breast it was more than 50 µM; with HT29 colon, more than 50 µM; in the assay on K-562 leukemia it was more than 50 µM. Also, the TGI in the assay on LOX IMVI melanoma, with MCF7 breast, in the assay with SF-268 CNS, in the assay on SF-295 CNS, in the assay with SK-MEL-2 melanoma and in the assay with SK-MEL-28 melanoma was more than 50 µM throughout. In addition, the TGI in the assay on SK-MEL-5 melanoma, in the assay with SW-620 colon and in the assay with U251 CNS was more than 50 µM in each case.

On to `CN(C(=O)C1=CCCCCC1)c1ccccc1I`, for which the TGI in the assay on CAKI-1 renal was more than 100 µM; in the assay on HCT-116 colon it was more than 100 µM; in the assay on HL-60(TB) leukemia it was more than 100 µM; with HS 578T breast, 35.5 µM; in the assay with K-562 leukemia, more than 100 µM; in the assay with LOX IMVI melanoma it was more than 100 µM. Besides, the TGI in the assay on MCF7 breast was more than 100 µM; with SF-268 CNS, 95.9 µM; in the assay on SF-295 CNS, more than 100 µM; with SK-MEL-2 melanoma, more than 100 µM; in the assay on SK-MEL-28 melanoma, more than 100 µM; in the assay on SK-MEL-5 melanoma, more than 100 µM. Further, the TGI in the assay on SW-620 colon and in the assay with U251 CNS was more than 100 µM in each case.

For the compound `O=c1cc(-c2ccc(O)c(O)c2)oc2cc(OC3OC(CO)C(O)C(O)C3O)cc(O)c12` (centres undefined), the TGI in the assay on CAKI-1 renal, in the assay on HCT-116 colon, in the assay on HL-60(TB) leukemia, with HS 578T breast, with HT29 colon and in the assay on LOX IMVI melanoma was more than 100 µM in each case. Further, the TGI in the assay on MCF7 breast, in the assay with SF-268 CNS, with SF-295 CNS, with SK-MEL-2 melanoma, with SK-MEL-28 melanoma and in the assay with SK-MEL-5 melanoma was more than 100 µM throughout. In addition, the TGI in the assay on SW-620 colon, with TK-10 renal and in the assay with U251 CNS was more than 100 µM throughout.

For `CN(CCO)CC(=O)CC(O)(C(F)(F)F)C(F)(F)F`, the TGI is 90.3 µM in the assay with CAKI-1 renal; more than 100 µM in the assay on HCT-116 colon; 73.5 µM in the assay on HL-60(TB) leukemia; 58.7 µM in the assay with HS 578T breast; more than 100 µM in the assay with HT29 colon; more than 100 µM in the assay with K-562 leukemia. Further, the TGI is 86.3 µM in the assay on LOX IMVI melanoma; more than 100 µM with MCF7 breast; more than 100 µM with SF-295 CNS; 95.3 µM in the assay with SK-MEL-2 melanoma; more than 100 µM with SK-MEL-28 melanoma; 31.8 µM in the assay on SK-MEL-5 melanoma. Besides, the TGI in the assay with SW-620 colon, with TK-10 renal and with U251 CNS was more than 100 µM in each case.

Take `O=C(O)CCC(=O)Nc1ccc2c(c1)S(=O)(=O)N(CC(=O)O)C2=O`: the TGI in the assay with CAKI-1 renal, in the assay with HCT-116 colon, in the assay on HL-60(TB) leukemia, in the assay on HS 578T breast, with HT29 colon and with K-562 leukemia was more than 100 µM each time. In addition, the TGI in the assay with LOX IMVI melanoma, with MCF7 breast, in the assay with SF-295 CNS, with SK-MEL-2 melanoma, in the assay with SK-MEL-28 melanoma and in the assay on SK-MEL-5 melanoma was more than 100 µM each time. For the same compound, the TGI in the assay on SW-620 colon, in the assay with TK-10 renal and with U251 CNS was more than 100 µM throughout.

Consider `O=C(Nc1ccccc1)N1CCNC1=S`, for which the TGI in the assay with CAKI-1 renal, with HCT-116 colon, in the assay on HL-60(TB) leukemia, with HS 578T breast, with HT29 colon and with K-562 leukemia was more than 100 µM throughout. Further, the TGI in the assay on LOX IMVI melanoma, with MCF7 breast, with SF-268 CNS, in the assay with SF-295 CNS, in the assay on SK-MEL-2 melanoma and in the assay with SK-MEL-28 melanoma was more than 100 µM each time. In addition, the TGI in the assay on SK-MEL-5 melanoma, with SW-620 colon and in the assay with U251 CNS was more than 100 µM in each case.

For the compound `COc1ccc(NS(=O)CCc2ccccc2)cc1` (centres undefined), the TGI with CAKI-1 renal, in the assay on HCT-116 colon, in the assay on HL-60(TB) leukemia, in the assay with HS 578T breast, in the assay with HT29 colon and in the assay on K-562 leukemia was more than 100 µM each time. Further, the TGI in the assay on LOX IMVI melanoma, in the assay with MCF7 breast, in the assay with SF-268 CNS, with SF-295 CNS, with SK-MEL-28 melanoma and with SK-MEL-5 melanoma was more than 100 µM each time. In addition, the TGI with SW-620 colon, in the assay with TK-10 renal and in the assay with U251 CNS was more than 100 µM throughout.

The values above are taken from PubChem BioAssay (NCI).
